{
  "source": "patent US20170136001A1",
  "about": "“METHOD OF TREATING A VIRAL INFECTION USING ELVITEGRAVIR COMBINATIONS” (priority 2007, published 2017)",
  "key": {"[1]": {"assay": "Study 2: steady-state pharmacokinetic interaction between atazanavir/r and the Compound (85 mg test, 150 mg reference)", "assay_type": "in vivo, human", "text": "Consideration was given to achieving equivalent Compound exposures in patients receiving and not receiving atazanavir using pharmacokinetic (bio-) equivalence comparisons (Pharsight Corporation, Mountain View, Calif., USA). Consideration was also given to minimizing the number of individuals with extreme outliers in (low or high) exposures."}, "[2]": {"assay": "Example 2: pharmacokinetic interaction, EVG/ATV 300/400 mg versus EVG/r 300/100 mg, with midazolam CYP3A probe", "settings": "midazolam oral syrup 5 mg with last dose; EVG/ATV vs. EVG/r", "experimental": "This study evaluated the safety and steady-state pharmacokinetics of the co-administered Compound and ATV.\nHealthy subjects received EVG/r 300/100 mg or EVG/ATV 300/400 mg in a randomized, crossover manner for 10 days each, with the last dose being coadministered with the CYP3A probe substrate midazolam (oral syrup; 5 mg) and pharmacokinetic (PK) sampling performed. […] ATV, midazolam, and ritonavir pharmacokinetics were also determined for descriptive statistics."}, "[3]": {"assay": "Study 1: steady-state pharmacokinetic interaction between atazanavir/r and the Compound (200 mg)", "assay_type": "in vivo, human", "text": "This study evaluated the safety and steady-state pharmacokinetics of the coadministered Compound and ATV/r."}},
  "data": [
    {"smiles": "COC(=O)N[C@H](C(=O)N[C@@H](Cc1ccccc1)[C@@H](O)CN(Cc1ccc(-c2ccccn2)cc1)NC(=O)[C@@H](NC(=O)OC)C(C)(C)C)C(C)(C)C", "note": "[ATV, 1-[4-(pyridine-2-yl)-phenyl]-4(S)-2,5-bis-[N—(N-methoxycarbonyl-(L)-tert-leucyl)amino]-6-phenyl-2-axahexane]", "values": [
      {"measurement": "Cmax % GMR (90% CI)", "setting": "[1]; Study 2, coadministration (the Compound 85 mg + ATV/r 300/100 mg QD) : alone (the Compound reference 150 mg), 14 days, healthy subjects", "value": 96.0, "unit": "%"},
      {"measurement": "ATV exposures", "setting": "[1]; with the reduced 85 mg dose of the Compound", "value": "not affected"}
    ]},
    {"smiles": "Cc1ncc2n1-c1ccc(Cl)cc1C(c1ccccc1F)=NC2", "note": "[midazolam]", "values": [
      {"measurement": "midazolam AUCinf geometric mean ratio (90% CI)", "setting": "[2]", "value": "89.5 (80.7, 99.3)"},
      {"measurement": "midazolam Cmax geometric mean ratio (90% CI)", "setting": "[2]", "value": "98.8 (89.6, 109)"}
    ]},
    {"smiles": "COc1cc2c(cc1Cc1cccc(Cl)c1F)c(=O)c(C(=O)O)cn2[C@H](CO)C(C)C", "note": "[the Compound, 6-(3-chloro-2-fluorobenzyl)-1-[(2S)-1-hydroxy-3-methylbutan-2-yl]-7-methoxy-4-oxo-1,4-dihydroquinoline-3-carboxylic acid]", "values": [
      {"measurement": "systemic exposure", "setting": "[1]; 85 mg of the Compound with ritonavir-boosted atazanavir compared with the 150 mg dose of the Compound alone", "value": "equivalent"},
      {"measurement": "AUCtau % GMR (90% CI)", "setting": "[3]; Study 1, coadministration (the Compound 200 mg + ATV/r 300/100 mg QD) : alone, 14 days, healthy subjects", "value": 200, "unit": "%"},
      {"measurement": "the Compound exposures upon coadministration with ATV/r", "setting": "[3]; coadministration with ATV/r", "value": "elevated"}
    ]}
  ]
}
